Biological target: D112_2N-mutant H3 HA (A/X-31) (Influenza A virus, UniProt P03438, D457N)
Type: cell-based, influenza A/H3N2 virus

## CC1CCC2(CC1)SC(C)C(=O)N2NC(=O)c1ccc(C(C)(C)C)cc1 (stereo not shown) [Compound 2c, 4‐(tert‐Butyl)‐N‐(2,8‐dimethyl‐3‐oxo‐1‐thia‐4‐azaspiro[4.5]decan‐4‐yl)benzamide]
  inhibition of membrane fusion in cells expressing D112_2N-substituted HA: no inhibition

Source: publication PMC11931604 (Drug Development Research, 2025)
